How the values were obtained:
Experiment in all cases: relative viability (nuclei count vs DMSO), 5 days (fraction); higher = more cells survive
Veliparib + Navitoclax = compound: C[C@]1(c2nc3c(C(N)=O)cccc3[nH]2)CCCN1 [Veliparib] + CC1(C)CCC(c2ccc(Cl)cc2)=C(CN2CCN(c3ccc(C(=O)NS(=O)(=O)c4ccc(N[C@H](CCN5CCOCC5)CSc5ccccc5)c(S(=O)(=O)C(F)(F)F)c4)cc3)CC2)C1 [Navitoclax] (partner 0.5 µM)
Summary of the method: (§1)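 Lung cancer cell lines, seeded in 1536-well plates, were treated the following day by pin tool with a single drug or with five library-drug doses (not always all listed) in √10 steps on top of a fixed anchor-drug dose. Cells were fixed and nuclei stained in one step after 5 days, and nuclei were counted. Relative viability is the nuclei count for treated wells divided by that for vehicle wells, reported as medians of duplicate plates.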

[1] = compound: COC1=CC=C(C=C1)CN2C=CC3=C2C=C(C=C3)C(=O)NO + N=C(N)NC(=N)NCCc1ccccc1 [Phenformin] (partner 250 µM)
Summary of the method: as §1

[2] = compound: COC1=CC=C(C=C1)CN2C=CC3=C2C=C(C=C3)C(=O)NO + CC(=O)Nc1cccc(-n2c(=O)n(C3CC3)c(=O)c3c(Nc4ccc(I)cc4F)n(C)c(=O)c(C)c32)c1 [Trametinib] (partner 0.02 µM)
Summary of the method: as §1

[3] = compound: COC1=CC=C(C=C1)CN2C=CC3=C2C=C(C=C3)C(=O)NO + Nc1ncn([C@H]2C[C@H](O)[C@@H](CO)O2)c(=O)n1 [Decitabine] (partner 2 µM)
Summary of the method: as §1

| Cell Line | relative viability (Veliparib + Navitoclax; first compound 0.02 µM) | relative viability (Veliparib + Navitoclax; first compound 0.06325 µM) | relative viability (Veliparib + Navitoclax; first compound 0.2 µM) | relative viability (Veliparib + Navitoclax; first compound 0.6325 µM) | relative viability (Veliparib + Navitoclax; first compound 2 µM) | relative viability ([1]; first compound 0.08 µM) | relative viability ([1]; first compound 0.253 µM) | relative viability ([1]; first compound 0.8 µM) | relative viability ([1]; first compound 2.53 µM) | relative viability ([1]; first compound 8 µM) | relative viability ([2]; first compound 0.08 µM) | relative viability ([2]; first compound 0.253 µM) | relative viability ([2]; first compound 0.8 µM) | relative viability ([2]; first compound 2.53 µM) | relative viability ([2]; first compound 8 µM) | relative viability ([3]; first compound 0.08 µM) | relative viability ([3]; first compound 0.253 µM) | relative viability ([3]; first compound 0.8 µM) | relative viability ([3]; first compound 2.53 µM) | relative viability ([3]; first compound 8 µM) |
| --- | --- | --- | --- | --- | --- | --- | --- | --- | --- | --- | --- | --- | --- | --- | --- | --- | --- | --- | --- | --- |
| COR-L 105 | 0.688 | 0.817 | 0.712 | 0.615 | 0.928 | 0.383 | 0.492 | 0.335 | 0.34 | 0.271 | 0.348 | 0.469 | 0.443 | 0.471 | 0.385 | 0.515 | 0.618 | 0.752 | 0.601 | 0.604 |
| HCC-78 | 0.892 | 0.77 | 0.881 | 0.646 | 0.648 | 0.62 | 0.63 | 0.718 | 0.818 | 0.65 | 0.671 | 0.807 | 0.634 | 0.798 | 0.613 | 0.768 | 0.643 | 0.74 | 0.702 | 0.521 |
| ChaGo-K-1 |  | 0.833 | 1.08 | 1.06 | 0.85 |  | 0.539 | 0.484 | 0.438 | 0.374 |  | 0.924 | 0.887 | 0.861 | 0.803 |  | 0.502 | 0.526 | 0.525 | 0.488 |
| NCI-H441 | 0.701 | 0.478 | 0.667 | 0.501 | 0.387 | 0.914 | 0.89 | 0.907 | 0.863 | 0.653 | 0.353 | 0.491 | 0.61 | 0.422 | 0.449 | 0.258 | 0.239 | 0.258 | 0.237 | 0.276 |
| SK-MES-1 | 1.27 | 1.16 | 1.3 | 1.06 | 1.26 | 0.661 | 0.651 | 0.632 | 0.686 | 0.644 | 0.549 | 0.551 | 0.549 | 0.586 | 0.575 | 0.397 | 0.377 | 0.436 | 0.369 | 0.343 |
| NCI-H2170 | 0.544 | 0.531 | 0.597 | 0.618 | 0.606 | 0.407 | 0.396 | 0.411 | 0.419 | 0.381 | 0.888 | 0.931 | 0.867 | 0.897 | 0.865 | 0.494 | 0.514 | 0.459 | 0.455 | 0.43 |
| A-427 | 1.05 | 0.795 | 0.93 | 0.938 | 0.893 |  | 0.344 | 0.357 | 0.314 | 0.235 | 0.346 |  | 0.813 | 0.781 | 0.675 | 0.263 |  | 0.554 | 0.584 | 0.5 |
| HARA | 1.17 | 1.09 | 1.1 | 1.08 | 1.15 |  | 0.455 | 0.511 | 0.43 | 0.317 |  | 0.607 | 0.668 | 0.849 | 0.705 |  | 0.493 | 0.6 | 0.587 | 0.534 |
| NCI-H1944 | 0.99 | 0.996 | 0.929 | 0.907 | 0.899 |  | 0.234 | 0.195 | 0.188 | 0.165 |  | 0.415 | 0.449 | 0.421 | 0.429 |  | 0.431 | 0.384 | 0.456 | 0.406 |
| HCC-44 | 1.05 | 0.846 | 1.02 | 0.798 | 0.967 | 0.166 | 0.231 | 0.185 | 0.228 | 0.16 | 1.04 | 1.02 | 0.996 | 1.04 | 1.06 | 0.943 | 0.992 | 0.974 | 0.988 | 0.881 |
| NCI-H1915 | 0.766 | 0.759 | 0.706 | 0.703 | 0.67 | 0.348 | 0.38 | 0.378 | 0.359 | 0.348 | 0.282 | 0.297 | 0.305 | 0.32 | 0.31 | 0.239 | 0.284 | 0.259 | 0.275 | 0.262 |
| NCI-H1793 | 0.435 | 0.602 | 0.424 | 0.376 | 0.396 |  | 0.457 | 0.438 | 0.414 | 0.368 |  | 0.471 | 0.449 | 0.416 | 0.336 |  | 0.678 | 0.592 | 0.662 | 0.286 |
| NCI-H596 | 1.02 | 0.861 | 1.06 | 0.761 | 0.834 | 0.774 | 0.99 | 0.769 | 0.655 | 0.666 | 0.64 | 0.797 | 0.923 | 0.776 | 0.758 | 1.04 | 1.78 | 1.15 | 0.922 | 1 |
| NCI-H1666 | 1.03 | 0.696 | 0.932 | 0.8 | 1.03 | 0.559 | 0.558 | 0.557 | 0.579 | 0.523 | 0.835 | 0.881 | 0.849 | 0.934 | 0.793 | 0.639 | 0.797 | 0.81 | 0.659 | 0.723 |

Source: the supplement of paper PMC10307832
